Test results published in ChEMBL document CHEMBL4330097 (J Med Chem, 2019).
Converted amounts (≈) assume the structure as drawn.

Legend:
[1] = Lipophilicity, log D of the compound in acetonitrile/water at 1:1 ratio at pH 7.5 by RP-HPLC analysis; assay type: physicochemical; conditions: acetonitrile/water 1:1 (RP-HPLC)
[2] = Maximal oral bioavailability in human; assay type: ADME, organism-based; conditions: in vivo
[3] = Chemical stability of the compound assessed as degradation rate at pH 1 to 10 after 24 hrs by HPLC-UV analysis; assay type: physicochemical; conditions: buffer, pH 1, 24 h
[4] = Clearance in human liver microsomes at 1 uM up 60 mins in presence of NADP and glucose-6-phosphate by LC-MS/MS analysis; assay type: ADME, Microsome; conditions: 1 h
[5] = Maximal oral bioavailability in Han/Wistar rat; assay type: ADME, organism-based; conditions: in vivo
[6] = Aqueous solubility of the compound in DMSO at 6.5 after 24 hrs by HPLC-MS/MS analysis; assay type: physicochemical; conditions: aqueous medium with DMSO, pH 6.5
[7] = Apparent permeability across basolateral to apical side in human Caco2 cells at 2 uM after 2 hrs by LC-MS/MS analysis; assay type: ADME, cell-based; conditions: Caco-2
[8] = Apparent permeability across apical to basolateral side in human Caco2 cells at 2 uM after 2 hrs by LC-MS/MS analysis; assay type: ADME, cell-based; conditions: Caco-2
[9] = Clearance in Han/Wistar rat hepatocytes at 1 uM up 90 mins by HPLC-MS/MS analysis; assay type: ADME, cell-based, Hepatocyte

chromatographic logD [1]: 2.4
Fmax [2]: 38%
Stability [3]: Stable
CLH [4]: 13 mL/min/kg
Fmax [5]: 13%
solubility at 24 h [6]: 218 µg/mL (≈ 423 µM)
Papp B→A at 2 h, 2 µM [7]: 10.7 ×10⁻⁶ cm/s
Papp A→B at 2 h, 2 µM [8]: 18.4 ×10⁻⁶ cm/s
CLH [9]: 61.7 mL/min/kg
SMILES: CN1CCN(c2cnc3c(C4CCN(C(=O)c5ccc(OC(F)(F)F)cc5N)CC4)ncnc3c2)CC1 [BAY-885]
